Results reported in US7220729B2, “Huntington's Disease Treatment” (Academia Sinica, priority 2004, dated 2007).

What was measured:
[1] = test system: R6/2 mice; test: Striatal atrophy / lateral ventricle enlargement on coronal brain sections; assay type: in vivo, mouse; settings: R6/2 mice at 12 weeks old; vehicle 1.63±0.14, p<0.001, n=5
Experimental: Striatal atrophy is one of the major characteristics of HD. In R6/2 mice, marked progressive atrophy of the striatum was found at the age of 3 to 13 weeks (Ferrante et al., J. Neurosci. 2000;20:4389–4397). Thus, the above-described CGS 21680-treated and vehicle-treated R6/2 mice were examined for striatal atrophy.
Each of the mice was anesthetized using sodium pentobarbital (100 μg/g), and intracardially perfused with 4% paraformaldehyde in 0.1 M phosphate buffer (PB, pH 7.4). The brain was carefully removed, post-fixed with 4% paraformaldehyde/0.1 M PB for 2–5 hours, and immersed in 30% glycerol in 0.1 M PB. Then, it was cut at 20 μm on a freezing microtome (CM3050, Leica Microsystems Nussloch, Nussloch, Germany). Serial-cut coronal tissue sections from the rostral segment of the neostriatum to the level of the anterior commissure (interaural 5.34 mm/bregma 1.54 mm to interaural 3.7 mm/bregma −0.1 mm) were used to define atrophy of the striatum and enlargement of the lateral ventricles. Total areas of the striatum or the lateral ventricles were measured using the software NIH Image 1.62. Nissl-stained sections were quantified by counting the corresponding types of cells in defined areas of photomicrographs taken using a phase contrast microscope.

[2] = test system: R6/2 mice; test: Motor coordination by rotarod performance; assay type: in vivo, mouse; settings: treatment from 7 weeks of age, vs vehicle
Excerpt: The motor coordination of each mouse was also examined by rotarod performance using standard techniques. […] It is known that the motor coordination of an R6/2 mouse starts to deteriorate at the age of 4 weeks, which is 3 weeks prior to the time of the CGS 21680 treatment. It is expected that CGS 21680 administration prior to 4 week of age might improve the motor coordination of an R6/2 mouse.

[3] = test system: NGF, CNTF, GDNF, BDNF, bFGF; test: Quantitative real-time RT-PCR of striatal neurotrophic factors; assay type: in vivo, mouse; settings: R6/2 mice, mRNA normalized to GAPDH, vs vehicle
Experimental: Total RNA was purified from each of the above-described administrated mice and their littermates, and was treated with RNase-free DNase I (RQI, Promega, Madison, Wis., USA) following the manufacturer's protocol to remove genomic DNA. cDNA synthesis and quantitative real-time RT-PCR were performed using the […] One-Step RT-PCR kit (Clontech, Palo Alto, Calif., USA) containing SYBR Green I (BioWhittaker Molecular Applications; BMA, Rockland, Me., USA). More specifically, the first-strand cDNA was synthesized at 50° C. for 60 minutes and denatured at 95° C. for 10 minutes. PCR reactions were then carried out in the same tubes using the following conditions for 40 cycles: 95° C. for 30 seconds, 60° C. for 30 seconds, and 68° C. for 60 seconds.
Independent RT-PCRs were performed using the same RNAs for each neurotrophic factor gene (target gene) and glyceraldehyde-3-phosphate dehydrogenase (GAPDH, reference gene). Real-time fluorescence monitoring and melting curve analysis were performed using Rotor-Gene 3000 (Corbett Research, Sydney, Australia). […] Data were analyzed by the Rotor-Gene 3000 operating software version 4.6.94 (Corbett Research) to determine the threshold cycle (CT) above the background for each reaction. The relative transcript amount of each target gene, calculated using standard curves of serial RNA dilutions, was normalized to that of GAPDH amplified from the same RNA.

[4] = test system: AMPK; test: Western blot of AMPK protein and Thr172 phosphorylation in striatal cytosolic fraction of treated R6/2 mice; assay type: in vivo, mouse; settings: striatum of R6/2 mice, 5 μg/g i.p. once a day up to 3.5 weeks
Experimental: Male R6/2 mice and wild type littermates were obtained from Jackson Laboratories (Bar Harbor, Me., USA) and were mated with female control mice (B6CBAFI/J). Each offspring was genotyped by PCR using genomic DNA extracted from the tail to ensure that the number of CAG repeats remained approximately 150. Primers used were [NT] ID NO:1) and [NT] ID NO:2). All animal experiments were performed under protocols approved by the Academia Sinica Institutional Animal Care and Utilization Conunittee, Taiwan. […] Then, the striatal cytosolic fraction was collected from each mouse and subjected to Western blot analysis using the standard techniques as described in Rutter et al., Biochem. J. 2003;375:1-16. More specifically, membrane fractions were combined with a 2× sample buffer containing 125 mM Tris-HCl (pH 6.8), 20% glycerol, 1% SDS, 15% 2-mercaptoethanol, 200 mM dithiothreitol, and 0.01% bromphenol blue; boiled for 5 minutes; centrifuged to remove the insoluble material; and then separated on 8% separating gels. […] The phosphorylation of AMPK at Thr172 was quantified by densitometry of the anti-AMPK-P immunoreactive bands using ImageQuant v.3.15 (Molecular Dynamics).

[5] = test system: R6/2 mice; test: Blood glucose level in R6/2 mice; assay type: in vivo, mouse; settings: chronic treatment, untreated R6/2 higher than wild type by approximately 1-fold
Experimental: Hyperglycemia has been found in HD patients and R6/2 mice. […] The above-described R6/2 mice and wild type littermates were decapitated and blood samples (1 to 1.5 ml) were collected from each mouse using standard techniques. Blood glucose levels were measured using ABBOTT Alcyon 300i (ABBOTT Labs, USA).

[6] = test system: R6/2 mice; test: Locomotor activity (beam breaks in activity monitor) of R6/2 mice; assay type: in vivo, mouse; settings: week 2 after administration, 5 μg/g i.p. daily, vs vehicle, statistically significant (Student's t-test)
Experimental: Twenty-four hours after each administration, the locomotor activity of each mouse was measured for 10 minutes according to the method described in Lee et al., Chin. J. Physiol. 1992;35:317–336. Briefly, each mouse was placed in an activity monitor (Coulbourn Instruments, Allentown, Pa., USA) equipped with 16×16 horizontal sensors, which were used to monitor the mouse's floor position. The locomotor activity was measured by the total number of beam breaks in an X-Y plane recorded every 10 minutes.

[7] = test system: adenylyl cyclase; test: Adenylyl cyclase activity assay on striatal membrane fractions; assay type: biochemical, mouse; settings: striatal membranes of R6/2 mice compared with wild type mice
Experimental: Briefly, striatal tissues were isolated from the mice and sonicated in a lysis buffer (0.4 mM EDTA, 1 mM EGTA, 25 mM Tris-HCl, 250 mM sucrose, 0.1 mM leupeptin, and 40 μM PMSF, pH 7.4) using a W-380 sonicator (Ultrasonics, Farmingdale, N.Y., USA) at a setting of 20% output power for a total of 45 seconds. The resultant homogenate was centrifuged at 50,000×g for 30 minutes and the P1 membrane fractions and the soluble fractions were collected. The adenylyl cyclase activity assay was performed at 37° C. for 10 minutes in a 400-μl reaction mixture containing 1 mM ATP, 100 mM NaCl, 50 mM Hepes, 0.2 mM EGTA, 100 μM rolipram, 6 mM MgCl2, 1 μM GTP, and 20 μg of membrane protein. The reactions were stopped by adding 0.6 ml of 10% TCA. The cAMP formed was isolated by Dowex chromatography (Sigma, St. Louis, Mo., USA) and was assayed to the method described in Chern et al. The enzymatic reaction was in a linear range for up to 30 minutes with up to 40 μg of membrane proteins.

CCNC(=O)[C@H]1O[C@@H](n2cnc3c(N)nc(NCCc4ccc(CCC(=O)O)cc4)nc32)[C@H](O)[C@@H]1O [CGS21680]
size of ventricular enlargement [1]: 0.91±0.14 mm^2 | motor coordination (rotarod performance) [2]: No difference was found | striatum expression level of trophic factors [3]: did not change | reduction of AMPK phosphorylation level (Thr172) ([4]; vs vehicle): about 35% | AMPK protein level ([4]; compared with vehicle R6/2 and wild type): about the same AMPK protein level | blood glucose level [5]: reduced the aberrantly elevated blood glucose level in R6/2 mice to a level comparable to that in the wild type mice | locomotor activity [6]: did not exhibit such deterioration, but showed improvement in the locomotor activity | adenylyl cyclase activities induced by the compound, R6/2 vs wild type mice [7]: much higher level than those in the wild type mice
